In assay [1] the target is BRD4-BD1 (Homo sapiens (Human), UniProt O60885). Put plainly: BRD4 AlphaLISA (Perkin Elmer). The note with it: 5 nM BRD4-BD1, 12 nM biotinylated substrate, read-out: BRD4_BD1 IC50_μM. The class given is binding. As for the experimental part:
BRD4 AlphaLISA (Perkin Elmer)
Compounds were diluted by step-down dilution method (final concentration of DMSO was 1%) and added to the wells of a 384 well opti plate at desired concentrations. 5 nM BDR4-BD1 enzyme (produced in-house) and 12 nM of biotinylated substrate were added to the wells, covered and incubated at room temperature (RT) for 1 h. At the end of 1 h 250 ng of GSH acceptor beads were added to the well and incubated for 1 h at RT; then 500 ng of streptavidin donor beads were added and incubated again for 1 h at RT. Plates were read in a Pherastar reader at 680 nm excitation and 570 nm emission. As detailed above, compounds were tested for both BRD4 enzyme inhibitory activities and IC50 were determined.

Assay [2] concerns AML cell line MV4-11. Put plainly: Anticancer activity: Alamar Blue 3-day proliferation assay. The class given is cell-based. The note with it: Homo sapiens, MV4-11 cells, 72 h incubation, read-out: MV4-11 EC50_μM. As for the experimental part:
Anticancer Activity: Alamar Blue Assay
The impact of the compounds on cancer cell proliferation was determined using the AML cell line MV4-11 (ATCC) in a 3-day proliferation assay. MV4-11 cells were maintained in RPMI supplemented with 10% FBS at 37° C., 5% CO2. For compound testing, MV4-11 cells were plated in a 96-well black bottom plate at a density of 15,000 cells/well in 100 μL culture media and incubated at 37° C. overnight. Compound dilution series were prepared in DMSO via a 3-fold serial dilution from […]. The DMSO dilution series were then diluted with media, with the final compound concentrations added to the wells ranging from […]. […] The fluorescent readings from the Alamar Blue assay were normalized to the DMSO treated cells and analyzed using the GraphPad Prism software with sigmoidal curve fitting to obtain EC50.
A general note: The colour change of resazurin is a common sign of viable cells or microbes.

From US10689390B2, “Tricyclic fused derivatives of 1-(cyclo)alkyl pyridin-2-one useful for the treatment of cancer” (JUBILANT BIOSYS LIMITED, priority 2015, dated 2020) come the findings set out here.

Molecules are shown by their SMILES.

`CCNC(=O)CC1N=C(c2ccc(Cl)cc2C)c2cc(OC)ccc2-c2cn(C)c(=O)cc21` (racemic) [Compound 39, ±2-(7-(4-chloro,2-methylphenyl)-9-methoxy-2-methyl-3-oxo-3,5-dihydro-2H-benzo[c]pyrido[3,4-e]azepin-5-yl)-N-ethylacetamide]: in assay [1], the IC50 was found to be 0.004 µM. Further, the EC50 in assay [2] was 0.008 µM.
In the case of `CCOC(=O)CC1N=C(C)c2cc(OC)ccc2-c2cn(C)c(=O)cc21` (racemic) [Compound 19, ±Ethyl-2-(9-methoxy-2,7-dimethyl-3-oxo-3,5-dihydro-2H-benzo[c]pyrido[3,4-e]azepin-5-yl)acetate], in assay [1], the IC50 came out at 0.176 µM.
Regarding `CCNC(=O)CC1N=C(c2ccc(Cl)cc2)c2cc(C(F)(F)F)ccc2-c2cn(C)c(=O)cc21` (racemic) [Compound 35, ±2-(7-(4-chlorophenyl)-2-methyl-3-oxo-9-(trifluoromethyl)-3,5-dihydro-2H-benzo[c]pyrido[3,4-e]azepin-5-yl)-N-ethylacetamide], the IC50 in assay [1] turned out to be 0.077 µM. Further, the EC50 in assay [2] is 0.04 µM.
Regarding `CCNC(=O)CC1N=C(c2ccc(Cl)cc2)c2cc(OC)ccc2-c2cn(C)c(=O)cc21` (racemic) [Compound 25, ±2-(7-(4-chlorophenyl)-9-methoxy-2-methyl-3-oxo-3,5dihydro-2H-benzo[c]pyrido[3,4-e]azepin-5-yl)-N-ethylacetamide], the EC50 in assay [2] was determined as 0.003 µM.
For the compound `CCOC(=O)CC1N=C(c2c(F)cccc2F)c2cc(OC)ccc2-c2cn(C)c(=O)cc21` (racemic) [Compound 23, ±Ethyl-2-(7-(2,6-difluorophenyl)-9-methoxy-2-methyl-3-oxo-3,5-dihydro-2H-benzo[c]pyrido[3,4-e]azepin-5-yl)acetate], the IC50 in assay [1] is 0.001 µM. Further, in assay [2], the EC50 came out at 0.005 µM.
As to `CCNC(=O)CC1N=C(CC2CC2)c2cc(OC)ccc2-c2cn(C)c(=O)cc21` (racemic) [Compound 30, ±2-(7-(cyclopropylmethyl)-9-methoxy-2-methyl-3-oxo-3,5-dihydro-2H-benzo[c]pyrido[3,4-e]azepin-5-yl)-N-ethylacetamide], in assay [1], the IC50 was found to be 0.01 µM. In addition, the EC50 in assay [2] is 0.118 µM.
For `CCNC(=O)CC1N=C(c2c(F)cccc2F)c2cc(OC)ccc2-c2cn(C)c(=O)cc21` (racemic) [Compound 38, ±2-(7-(2,6-difluorophenyl)-9-methoxy-2-methyl-3-oxo-3,5-dihydro-2H-benzo[c]pyrido[3,4-e]azepin-5-yl)-N-ethylacetamide], in that order: less than 0.0005 µM and 0.013 µM.
For `CCOC(=O)CC1OC(C2CCCCC2)c2cc(OC)ccc2-c2cn(C)c(=O)cc21` (racemic) [Compound 2, ±Ethyl-2-(7-cyclohexyl-9-methoxy-2-methyl-3-oxo-2,3,5,7-tetrahydrobenzo[5,6]oxepino[4,3-c]pyridin-5-yl)acetate], the IC50 in assay [1] came to 0.01 µM. In addition, the EC50 in assay [2] worked out at 0.001 µM.
As to `CCOC(=O)CC1OC(c2ccc(Cl)cc2)c2cc(OC)ccc2-c2cn(C)c(=O)cc21` (racemic) [Compound 1, ±Ethyl 2-(-7-(4-chlorophenyl)-9-methoxy-2-methyl-3-oxo-2,3,5,7-tetrahydrobenzo[5,6]oxepino[4,3-c]pyridin-5-yl)acetate], in assay [1], the IC50 is 0.024 µM.
`CCOC(=O)CC1N=C(c2ccc(Cl)cc2)c2cc(OC)ccc2-c2cn(C)c(=O)cc21` (racemic) [Compound 14, ±-Ethyl-2-(7-(4-chlorophenyl)-9-methoxy-2-methyl-3-oxo-3,5-dihydro-2H-benzo[c]pyrido[3,4-e]azepin-5-yl)acetate]: the EC50 in assay [2] worked out at 0.002 µM.
Regarding `CCNC(=O)CC1N=C(c2ccc(Cl)cc2)c2cc(F)ccc2-c2cn(C)c(=O)cc21` (racemic) [Compound 37, ±2-(7-(4-chlorophenyl)-9-fluoro-2-methyl-3-oxo-3,5-dihydro-2H-benzo[c]pyrido[3,4-e]azepin-5-yl)-N-ethylacetamide], the IC50 in assay [1] came out at 0.004 µM. Moreover, the EC50 in assay [2] turned out to be 0.028 µM.
Take `CCOC(=O)CC1N=C(C(F)(F)F)c2cc(OC)ccc2-c2cn(C)c(=O)cc21` (racemic) [Compound 18, ±Ethyl-2-(9-methoxy-2-methyl-3-oxo-7-(trifluoromethyl)-3,5-dihydro-2H-benzo[c]pyrido[3,4-e]azepin-5-yl)acetate]: in assay [1], the IC50 stood at 0.122 µM.
For `CCNC(=O)C[C@H]1O[C@H](c2ccc(Cl)cc2)c2cc(OC)ccc2-c2cn(C)c(=O)cc21` [Compound 8F, 2-((5R,7R)-7-(4-chlorophenyl)-9-methoxy-2-methyl-3-oxo-2,3,5,7-tetrahydrobenzo[5,6]oxepino[4,3-c]pyridin-5-yl)-N-ethylacetamide], the IC50 in assay [1] is 0.012 µM. Moreover, in assay [2], the EC50 came to 0.024 µM.
For `CCNC(=O)CC1N=C(C2CCCCC2)c2cc(OC)ccc2-c2cn(C)c(=O)cc21` (racemic) [Compound 26, ±2-(7-cyclohexyl-9-methoxy-2-methyl-3-oxo-3,5-dihydro-2H-benzo[c]pyrido[3,4-e]azepin-5-yl)-N-ethylacetamide] the same measures were 0.002 µM and 0.008 µM.
For `CCNC(=O)CC1N=C(C(F)(F)F)c2cc(OC)ccc2-c2cn(C)c(=O)cc21` (racemic) [Compound 32, ±2-(9-methoxy-2-methyl-3-oxo-7-(trifluoromethyl)-3,5-dihydro-2H-benzo[c]pyrido[3,4-e]azepin-5-yl)-N-ethylacetamide] the same measures were 0.049 µM and 0.108 µM.
For `CCNC(=O)CC1OC(c2ccc(C)cn2)c2cc(OC)ccc2-c2cn(C)c(=O)cc21` (racemic) [Compound 11, ±2-(9-methoxy-2-methyl-7-(5-methylpyridin-2-yl)-3-oxo-2,3,5,7-tetrahydrobenzo[5,6]oxepino[4,3-c]pyridin-5-yl)-N-ethylacetamide] the same measures were 0.061 µM and 0.175 µM.
As for `CCNC(=O)CC1N=C(c2ccccn2)c2cc(OC)ccc2-c2cn(C)c(=O)cc21` (racemic) [Compound 27, ±2-(9-methoxy-2-methyl-3-oxo-7-(pyridin-2-yl)-3,5-dihydro-2H-benzo[c]pyrido[3,4-e]azepin-5-yl)-N-ethylacetamide], the IC50 in assay [1] came out at 0.0044 µM. Moreover, the EC50 in assay [2] worked out at 0.112 µM.
For `COc1ccc2c(c1)C(c1ccc(Cl)cc1)=NC(CC(N)=O)c1cc(=O)n(C)cc1-2` (racemic) [Compound 28, ±2-(7-(4-chlorophenyl)-9-methoxy-2-methyl-3-oxo-3,5-dihydro-2H-benzo[c]pyrido[3,4-e]azepin-5-yl)acetamide], in that order: 0.036 µM and 0.326 µM.
